Patent publication US20110092589A1, “Treatment of Inflammatory Conditions and Diseases with Metal-Thiols” (THE CHARLOTTE-MECKLENBURG HOSPOTAL AUTHORITY, priority 2008, published 2011)

Assays:
[1] = tested on: Male swiss white mice; test: Survival in inflammation model of mice (cecum ligated and perforated); assay type: in vivo; details: for % Survived / Survived/Total: Table 2, treatment i.v. five hours after initiation of inflammation, BisEDT 20 ug/kg; for % Survival 1 dose: tail vein once daily for three days; for % Survival 1 dose / % Survival 2 doses: monitored 8 days; for % Survival 2 doses: tail vein twice daily for three days
Experimental: (§1) In the following examples, the protective effects of BisEDT was studied in an inflammation model of mice. Male swiss white mice weighing between 30-35 grams were used. The cecum of the mice were ligated and perforated to cause inflammation. BisEDT was prepared in a molar concentration of 1:2 by adding 4.9 pi 10.19 M EDT to 1 ml of 50 mM Bi(NO3)3 in propylene glycol.
A total of sixty mice, 10 in each group, were used in the survival phase of experimentation. Five hours after CLP, BisEDT was administered intravenously in five groups via the tail vein, once a day for three days, at doses of 0.2, 2, 20, 200 and 2000 ug Bi^3+/kg, while the last group received vehicle only. The survival time for each group of mice was recorded to determine an optimal dosage of BisEDT. The study was repeated using limited doses to confirm the results, and to determine if more frequent dosing would increase or prolong survival. This group was injected twice daily with the same doses of BisEDT, with one control group.
(§2) A total of eight groups each containing 10-20 mice in each group were used for the next phase of the study. Five hours after initiation of inflammation, 20 ug/kg BisEDT was administered intravenously with the combination of different biologics indicated in Table 2 with one group that received vehicle only (control). The survival time for each group was recorded. In another eight groups of mice 10 in each group was injected similarly with the same combination of treatment and control and several measures of immune response were assessed such as measurement of pro- and anti-inflammatory cytokines during BisEDT treatment of these mice. […] From 60-70% of mice survived when treated with one or two doses of 20 μg/kg BisEDT (p<0.05), whereas doses 10-fold higher or lower protected only 30-40% of mice (Table 1). […] However, only free TNFα, not total TNFα or free IL-10, correlated strongly with survival (r=−0.92). IL-10 is an anti-inflammatory cytokine and under certain circumstances it can cause immunosuppression. In order to test whether IL-10 plays a role in the model, monoclonal antibodies to IL-10 (that neutralizes IL-10) were used. […] Additionally, IL10 or IL-10+BisEDT provided no protection for the mice. A general damping down of cytokine production was observed, yet it was the reduction in free TNFα that correlated most closely with prevention. BisEDT appears to preserve the normal cellular response to activating stimuli and to protect mice from immune suppression or overwhelming immune reaction.
After inflammation, BisEDT was introduced into the tail vein once or twice daily for three days. Mice were monitored for 8 days to determine survival. *p<0.05, compared to control.

[2] = tested on: TNFα; test: Serum TNFα (total and free) in mouse inflammation model; assay type: in vivo, mice
Experimental: as §1, §2

[3] = tested on: IL-10; test: Serum free IL-10 in mouse inflammation model; assay type: in vivo, mice; details: Table 2; treatment i.v. five hours after initiation of inflammation; BisEDT 20 ug/kg
Experimental: as §1
A total of eight groups each containing 10-20 mice in each group were used for the next phase of the study. Five hours after initiation of inflammation, 20 ug/kg BisEDT was administered intravenously with the combination of different biologics indicated in Table 2 with one group that received vehicle only (control). The survival time for each group was recorded. In another eight groups of mice 10 in each group was injected similarly with the same combination of treatment and control and several measures of immune response were assessed such as measurement of pro- and anti-inflammatory cytokines during BisEDT treatment of these mice. […] From 60-70% of mice survived when treated with one or two doses of 20 μg/kg BisEDT (p<0.05), whereas doses 10-fold higher or lower protected only 30-40% of mice (Table 1). […] However, only free TNFα, not total TNFα or free IL-10, correlated strongly with survival (r=−0.92). IL-10 is an anti-inflammatory cytokine and under certain circumstances it can cause immunosuppression. […]

[4] = Table 2, treatment i.v. five hours after initiation of inflammation, BisEDT 20 ug/kg
[5] = 20 μg Bi3+/kg BW, *p<0.05 vs control

Substance	% Survived [1] [%]	Survived/Total [1]	protection of mice (in words) ([1]; mouse inflammation model)	changes in cytokine levels (IL1β, TNFα, IL-10, TGFβ), in words ([2]; BisEDT-treated mice, not nearly to the same extent as in the untreated group)	sTNFα (free fraction), serum [2, 4] [pg/mL]	tTNFα (total fraction), serum [2, 4] [ng/mL]	% Survival 1 dose ([1]; 2 μg Bi3+/kg BW) [%]	% Survival 2 doses ([1]; 2 μg Bi3+/kg BW) [%]	% Survival 1 dose [1, 5]	% Survival 2 doses [1, 5]	% Survival 1 dose ([1]; 200 μg Bi3+/kg BW) [%]	% Survival 2 doses ([1]; 200 μg Bi3+/kg BW) [%]	% of mice protected ([1]; doses 10-fold higher or lower than 20 μg/kg)	% of mice survived ([1]; one or two doses of 20 μg/kg BisEDT (p<0.05))	sIL-10 (free fraction), serum [3] [pg/mL]
IL-10: IL-10 is an anti-inflammatory cytokine	0	0/10	no protection	–	–	–	–	–	–	–	–	–	–	–	–
Bismuth-ethanedithiol [BisEDT]	60	6/10	–	significant changes in TNFα only	100	330	40	40	60* %	70* %	40	30	30-40%	60-70%	595
